In patent US20230085307A1, “PYRIDAZINONE COMPOUND AND HERBICIDE” (NISSAN CHEMICAL CORPORATION, priority 2019, published 2023):

Columns and labels:
velvetleaf [1] = test: Test Example 4: herbicidal effect by soil treatment (Table 19, symbol M); type: in vivo, velvetleaf (Abutilon theophrasti); settings: 320 g/ha
How it was run: (§1)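 Seeds were sown in sterilized diluvial soil and covered with about 1.5 cm of soil. An emulsion formulation diluted with water to a predetermined herbicide amount was sprayed evenly onto the soil surface. Plants grew in a greenhouse at 25° C. to 30° C., and the effect was scored three weeks after application using criteria from an earlier test.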

green foxtail [2] = test: Test Example 5: herbicidal effect by foliage application, plastic box (Table 20, symbol G); type: in vivo, green foxtail (Setaria viridis); settings: foliage application, 320 g/ha, 3 weeks after application
How it was run: (§2)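 Plants sown in sterilized diluvial soil and grown 14 days in a greenhouse at 25° C to 30° C, then sprayed on the foliage with the compound's emulsion diluted in water to a predetermined herbicide amount. Injury to weeds and crops scored three weeks after application on a visual rating scale.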

southern crabgrass [3] = test: Test Example 5: herbicidal effect by foliage application, plastic box (Table 20, symbol F); type: in vivo, southern crabgrass (Digitaria ciliaris); settings: foliage application, 320 g/ha, 3 weeks after application
How it was run: as §2

Japanese bulrush = test: Test Example 1: herbicidal activity, application before weed generation under submerged conditions (Table 16, symbol B); type: in vivo, Japanese bulrush (Schoenoplectus juncoides); settings: 320 g/ha applied herbicide
How it was run: (§3)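 Submerged Wagner pots (alluvial soil, 4 cm water) sown with weed seeds and planted with 2.5-leaf rice seedlings; emulsifiable concentrate diluted in water applied to water surface on sowing day. Held in greenhouse at 25-30 °C; injury scored 0-5 by herbicidal rate after three weeks.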

barnyard grass [4] = test: Test Example 4: herbicidal effect by soil treatment (Table 19, symbol H); type: in vivo, barnyard grass (Echinochloa crus-galli); settings: 320 g/ha
How it was run: as §1

persian speedwell [5] = test: Test Example 4: herbicidal effect by soil treatment (Table 19, symbol R); type: in vivo, Persian speedwell (Veronica persica); settings: 320 g/ha
How it was run: as §1

rice flat sedge = test: Test Example 3: herbicidal effect by foliage application, Wagner pot (Table 18, symbol E); type: in vivo, rice flat sedge (Cyperus iria); settings: 320 g/ha
How it was run: (§4)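 Plants were sown in alluvial soil held under 0.1–0.5 cm standing water and grown 14 days in a greenhouse at 25–30 °C. An emulsifiable formulation, water-diluted to the set dose, was then sprayed onto the foliage, and effects were scored three weeks later using previously defined criteria.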

Italian ryegrass [6] = test: Test Example 5: herbicidal effect by foliage application, plastic box (Table 20, symbol K); type: in vivo, Italian ryegrass (Lolium multiflorum); settings: foliage application, 320 g/ha, 3 weeks after application
How it was run: as §2

wild oat [7] = test: Test Example 5: herbicidal effect by foliage application, plastic box (Table 20, symbol I); type: in vivo, wild oat (Avena fatua); settings: foliage application, 320 g/ha, 3 weeks after application
How it was run: as §2

windgrass [8] = test: Test Example 4: herbicidal effect by soil treatment (Table 19, symbol L); type: in vivo, windgrass (Apera spica-venti); settings: 320 g/ha
How it was run: as §1

southern crabgrass [9] = test: Test Example 4: herbicidal effect by soil treatment (Table 19, symbol F); type: in vivo, southern crabgrass (Digitaria ciliaris); settings: 320 g/ha
How it was run: as §1

chickweed = test: Test Example 4: herbicidal effect by soil treatment (Table 19, symbol P); type: in vivo, common chickweed (Stellaria media); settings: 320 g/ha
How it was run: as §1

green foxtail [10] = test: Test Example 4: herbicidal effect by soil treatment (Table 19, symbol G); type: in vivo, green foxtail (Setaria viridis); settings: 320 g/ha
How it was run: as §1

oval-leafed pondweed = test: Test Example 1: herbicidal activity, application before weed generation under submerged conditions (Table 16, symbol C); type: in vivo, oval-leafed pondweed (Monochoria vaginalis); settings: 320 g/ha applied herbicide
How it was run: as §3

barnyard grass [11] = test: Test Example 5: herbicidal effect by foliage application, plastic box (Table 20, symbol H); type: in vivo, barnyard grass (Echinochloa crus-galli); settings: foliage application, 320 g/ha, 3 weeks after application
How it was run: as §2

lambsquarters [12] = test: Test Example 5: herbicidal effect by foliage application, plastic box (Table 20, symbol O); type: in vivo, lambsquarters (Chenopodium album); settings: foliage application, 320 g/ha, 3 weeks after application
How it was run: as §2

wild oat [13] = test: Test Example 4: herbicidal effect by soil treatment (Table 19, symbol I); type: in vivo, wild oat (Avena fatua); settings: 320 g/ha
How it was run: as §1

barnyard grass [14] = test: Test Example 3: herbicidal effect by foliage application, Wagner pot (Table 18, symbol H); type: in vivo, barnyard grass (Echinochloa crus-galli); settings: 320 g/ha
How it was run: as §4

persian speedwell [15] = test: Test Example 5: herbicidal effect by foliage application, plastic box (Table 20, symbol R); type: in vivo, Persian speedwell (Veronica persica); settings: foliage application, 320 g/ha, 3 weeks after application
How it was run: as §2

Italian ryegrass [16] = test: Test Example 4: herbicidal effect by soil treatment (Table 19, symbol K); type: in vivo, Italian ryegrass (Lolium multiflorum); settings: 320 g/ha
How it was run: as §1

velvetleaf [17] = test: Test Example 5: herbicidal effect by foliage application, plastic box (Table 20, symbol M); type: in vivo, velvetleaf (Abutilon theophrasti); settings: foliage application, 320 g/ha, 3 weeks after application
How it was run: as §2

blackgrass [18] = test: Test Example 5: herbicidal effect by foliage application, plastic box (Table 20, symbol J); type: in vivo, blackgrass (Alopecurus myosuroides); settings: foliage application, 320 g/ha, 3 weeks after application
How it was run: as §2

lambsquarters [19] = test: Test Example 4: herbicidal effect by soil treatment (Table 19, symbol O); type: in vivo, lambsquarters (Chenopodium album); settings: 320 g/ha
How it was run: as §1

late watergrass = test: Test Example 1: herbicidal activity, application before weed generation under submerged conditions (Table 16, symbol A); type: in vivo, late watergrass (Echinochloa oryzicola); settings: 320 g/ha applied herbicide
How it was run: as §3

Chinese sprangletop = test: Test Example 3: herbicidal effect by foliage application, Wagner pot (Table 18, symbol D); type: in vivo, chinese sprangletop (Leptochloa chinensis); settings: 320 g/ha
How it was run: as §4

windgrass [20] = test: Test Example 5: herbicidal effect by foliage application, plastic box (Table 20, symbol L); type: in vivo, windgrass (Apera spica-venti); settings: foliage application, 320 g/ha, 3 weeks after application
How it was run: as §2

blackgrass [21] = test: Test Example 4: herbicidal effect by soil treatment (Table 19, symbol J); type: in vivo, blackgrass (Alopecurus myosuroides); settings: 320 g/ha
How it was run: as §1

redroot pigweed = test: Test Example 4: herbicidal effect by soil treatment (Table 19, symbol N); type: in vivo, redroot pigweed (Amaranthus retroflexus); settings: 320 g/ha
How it was run: as §1

For `CCCC(=O)Oc1c(C)nn(C)c(=O)c1-c1c(-c2ccc(C(C)(C)C)cc2)sc2ccc(F)cc12` [2-017], the “herbicidal effect rating, M: velvetleaf” value (velvetleaf [1]) was 0 (Herbicidal rate of 5% or less (almost no effect)), the “effect on green foxtail (G)” value (green foxtail [2]) was 1 (Herbicidal rate of 5% or more and less than 20%) and the “effect on southern crabgrass (F)” value (southern crabgrass [3]) was 0 (Herbicidal rate of 5% or less (almost no effect)). The “Herbicidal effect on B: Japanese bulrush (grade 0-5)” value (Japanese bulrush) was 0 (Herbicidal rate of 5% or less (almost no effect)), the “herbicidal effect rating, H: barnyard grass” value (barnyard grass [4]) was 2 (Herbicidal rate of 20% or more and less than 40%) and the “herbicidal effect rating, R: persian speedwell” value (persian speedwell [5]) was 0 (Herbicidal rate of 5% or less (almost no effect)). For the same compound, the “herbicidal effect on E (rice flat sedge), rating 0-5” value (rice flat sedge) was 2 (Herbicidal rate of 20% or more and less than 40%), the “effect on Italian ryegrass (K)” value (Italian ryegrass [6]) was 0 (Herbicidal rate of 5% or less (almost no effect)) and the “effect on wild oat (I)” value (wild oat [7]) was 0 (Herbicidal rate of 5% or less (almost no effect)). For the same compound, the “herbicidal effect rating, L: windgrass” value (windgrass [8]) was 0 (Herbicidal rate of 5% or less (almost no effect)), the “herbicidal effect rating, F: southern crabgrass” value (southern crabgrass [9]) was 0 (Herbicidal rate of 5% or less (almost no effect)) and the “herbicidal effect rating, P: chickweed” value (chickweed) was 0 (Herbicidal rate of 5% or less (almost no effect)). The “herbicidal effect rating, G: green foxtail” value (green foxtail [10]) was 1 (Herbicidal rate of 5% or more and less than 20%), the “Herbicidal effect on C: oval-leafed pondweed (grade 0-5)” value (oval-leafed pondweed) was 0 (Herbicidal rate of 5% or less (almost no effect)) and the “effect on barnyard grass (H)” value (barnyard grass [11]) was 3 (Herbicidal rate of 40% or more and less than 70%). The “effect on lambsquarters (O)” value (lambsquarters [12]) was 1 (Herbicidal rate of 5% or more and less than 20%), the “herbicidal effect rating, I: wild oat” value (wild oat [13]) was 0 (Herbicidal rate of 5% or less (almost no effect)) and the “herbicidal effect on H (barnyard grass), rating 0-5” value (barnyard grass [14]) was 5 (Herbicidal rate of 90% or more (almost completely withered)). The “effect on persian speedwell (R)” value (persian speedwell [15]) was 3 (Herbicidal rate of 40% or more and less than 70%), the “herbicidal effect rating, K: Italian ryegrass” value (Italian ryegrass [16]) was 0 (Herbicidal rate of 5% or less (almost no effect)) and the “effect on velvetleaf (M)” value (velvetleaf [17]) was 1 (Herbicidal rate of 5% or more and less than 20%). For the same compound, the “effect on blackgrass (J)” value (blackgrass [18]) was 0 (Herbicidal rate of 5% or less (almost no effect)), the “herbicidal effect rating, O: lambsquarters” value (lambsquarters [19]) was 2 (Herbicidal rate of 20% or more and less than 40%) and the “Herbicidal effect on A: late watergrass (grade 0-5)” value (late watergrass) was 2 (Herbicidal rate of 20% or more and less than 40%). The “herbicidal effect on D (Chinese sprangletop), rating 0-5” value (Chinese sprangletop) was 3 (Herbicidal rate of 40% or more and less than 70%), the “effect on windgrass (L)” value (windgrass [20]) was 0 (Herbicidal rate of 5% or less (almost no effect)) and the “herbicidal effect rating, J: blackgrass” value (blackgrass [21]) was 0 (Herbicidal rate of 5% or less (almost no effect)). The “herbicidal effect rating, N: redroot pigweed” value (redroot pigweed) was 4 (Herbicidal rate of 70% or more and less than 90%).

In the case of `Cc1nn(C)c(=O)c(-c2c(-c3ccc(C(F)(F)F)cc3)sc3ccc(F)cc23)c1O` [2-020], the “herbicidal effect rating, M: velvetleaf” value (velvetleaf [1]) was 3 (Herbicidal rate of 40% or more and less than 70%), the “effect on green foxtail (G)” value (green foxtail [2]) was 5 (Herbicidal rate of 90% or more (almost completely withered)) and the “effect on southern crabgrass (F)” value (southern crabgrass [3]) was 5 (Herbicidal rate of 90% or more (almost completely withered)). For the same compound, the “Herbicidal effect on B: Japanese bulrush (grade 0-5)” value (Japanese bulrush) was 2 (Herbicidal rate of 20% or more and less than 40%), the “herbicidal effect rating, H: barnyard grass” value (barnyard grass [4]) was 2 (Herbicidal rate of 20% or more and less than 40%) and the “herbicidal effect rating, R: persian speedwell” value (persian speedwell [5]) was 5 (Herbicidal rate of 90% or more (almost completely withered)). The “herbicidal effect on E (rice flat sedge), rating 0-5” value (rice flat sedge) was 5 (Herbicidal rate of 90% or more (almost completely withered)), the “effect on Italian ryegrass (K)” value (Italian ryegrass [6]) was 5 (Herbicidal rate of 90% or more (almost completely withered)) and the “effect on wild oat (I)” value (wild oat [7]) was 4 (Herbicidal rate of 70% or more and less than 90%). For the same compound, the “herbicidal effect rating, L: windgrass” value (windgrass [8]) was 5 (Herbicidal rate of 90% or more (almost completely withered)), the “herbicidal effect rating, F: southern crabgrass” value (southern crabgrass [9]) was 3 (Herbicidal rate of 40% or more and less than 70%) and the “herbicidal effect rating, P: chickweed” value (chickweed) was 3 (Herbicidal rate of 40% or more and less than 70%). The “herbicidal effect rating, G: green foxtail” value (green foxtail [10]) was 4 (Herbicidal rate of 70% or more and less than 90%), the “Herbicidal effect on C: oval-leafed pondweed (grade 0-5)” value (oval-leafed pondweed) was 0 (Herbicidal rate of 5% or less (almost no effect)) and the “effect on barnyard grass (H)” value (barnyard grass [11]) was 5 (Herbicidal rate of 90% or more (almost completely withered)). The “effect on lambsquarters (O)” value (lambsquarters [12]) was 5 (Herbicidal rate of 90% or more (almost completely withered)), the “herbicidal effect rating, I: wild oat” value (wild oat [13]) was 0 (Herbicidal rate of 5% or less (almost no effect)) and the “herbicidal effect on H (barnyard grass), rating 0-5” value (barnyard grass [14]) was 5 (Herbicidal rate of 90% or more (almost completely withered)). The “effect on persian speedwell (R)” value (persian speedwell [15]) was 5 (Herbicidal rate of 90% or more (almost completely withered)), the “herbicidal effect rating, K: Italian ryegrass” value (Italian ryegrass [16]) was 5 (Herbicidal rate of 90% or more (almost completely withered)) and the “effect on velvetleaf (M)” value (velvetleaf [17]) was 5 (Herbicidal rate of 90% or more (almost completely withered)). The “effect on blackgrass (J)” value (blackgrass [18]) was 3 (Herbicidal rate of 40% or more and less than 70%), the “herbicidal effect rating, O: lambsquarters” value (lambsquarters [19]) was 5 (Herbicidal rate of 90% or more (almost completely withered)) and the “Herbicidal effect on A: late watergrass (grade 0-5)” value (late watergrass) was 0 (Herbicidal rate of 5% or less (almost no effect)). For the same compound, the “herbicidal effect on D (Chinese sprangletop), rating 0-5” value (Chinese sprangletop) was 3 (Herbicidal rate of 40% or more and less than 70%), the “effect on windgrass (L)” value (windgrass [20]) was 5 (Herbicidal rate of 90% or more (almost completely withered)) and the “herbicidal effect rating, J: blackgrass” value (blackgrass [21]) was 3 (Herbicidal rate of 40% or more and less than 70%). The “herbicidal effect rating, N: redroot pigweed” value (redroot pigweed) was 5 (Herbicidal rate of 90% or more (almost completely withered)).
